How the values were obtained:
[1] = 101.33 kPa, Liquid; for speed of sound: Sing-around technique in a fixed-path interferometer; for mass density: Vibrating tube method
[2] = xn = mol fraction of the nth substance listed; conditions: 81.5 kPa, Liquid, x2 = 0; for speed of sound: Sing-around technique in a fixed-path interferometer; for mass density: Vibrating tube method

CCn1cc[n+](C)c1.F[B-](F)(F)F [1-ethyl-3-methylimidazolium tetrafluoroborate]
[1]
Conditions | mass density [kg/m3] | speed of sound [m/s]
293.15 K | 1285.95 | 1640.4
298.15 K | 1282.14 | 1628.4
303.15 K | 1278.34 | 1616
308.15 K | 1274.55 | 1604.9
313.15 K | 1270.78 | 1593.4
318.15 K | 1267.03 | 1582
323.15 K | 1263.3 | 1570.6
328.15 K | 1259.58 | 1559.4
333.15 K | 1255.88 | 1548.2
338.15 K | 1252.2 | 1537.2
343.15 K | 1248.54 | 1526.2

CC(=O)N(C)C [N,N-dimethylethanamide]
[1]
Conditions | mass density [kg/m3] | speed of sound [m/s]
293.15 K | 941.341 | 1477.6
298.15 K | 936.729 | 1457.4
303.15 K | 932.112 | 1437.4
308.15 K | 927.492 | 1417.5
313.15 K | 922.863 | 1397.8
318.15 K | 918.23 | 1378.2
323.15 K | 913.586 | 1358.6
328.15 K | 908.932 | 1339.2
333.15 K | 904.268 | 1319.9
338.15 K | 899.595 | 1300.8
343.15 K | 894.909 | 1281.7

CC(=O)N(C)C [N,N-dimethylethanamide] + CCn1cc[n+](C)c1.F[B-](F)(F)F
[2]
Conditions | mass density [kg/m3] | speed of sound [m/s]
293.15 K | 941.341 | 1477.6
298.15 K | 936.729 | 1457.4
303.15 K | 932.112 | 1437.4
308.15 K | 927.492 | 1417.5
313.15 K | 922.863 | 1397.8
318.15 K | 918.23 | 1378.2
323.15 K | 913.586 | 1358.6
328.15 K | 908.932 | 1339.2
333.15 K | 904.268 | 1319.9
338.15 K | 899.595 | 1300.8
343.15 K | 894.909 | 1281.7

CN(C)C=O [dimethylformamide]
[1]
Conditions | mass density [kg/m3] | speed of sound [m/s]
293.15 K | 948.743 | 1477.1
298.15 K | 943.978 | 1457.6
303.15 K | 939.201 | 1438
308.15 K | 934.417 | 1418.7
313.15 K | 929.62 | 1399.3
318.15 K | 924.812 | 1380
323.15 K | 919.993 | 1360.9
328.15 K | 915.159 | 1341.7
333.15 K | 910.312 | 1322.7
338.15 K | 905.445 | 1303.7
343.15 K | 900.565 | 1284.8

CN(C)C=O [dimethylformamide] + CCn1cc[n+](C)c1.F[B-](F)(F)F
[2]
Conditions | mass density [kg/m3] | speed of sound [m/s]
293.15 K | 948.743 | 1477.1
298.15 K | 943.978 | 1457.6
303.15 K | 939.201 | 1438
308.15 K | 934.417 | 1418.7
313.15 K | 929.62 | 1399.3
318.15 K | 924.812 | 1380
323.15 K | 919.993 | 1360.9
328.15 K | 915.159 | 1341.7
333.15 K | 910.312 | 1322.7
338.15 K | 905.445 | 1303.7
343.15 K | 900.565 | 1284.8

Reference: the NIST ThermoML archive (doi:10.1021/acs.jced.6b00496)
